Each block holds one substance with its values, some of them ahead of it.
Legend:
Type in all cases: cell-based, human
GSK-3β expression [1] = experiment: GSK-3β immunoblotting (Western blot, densitometry) of endothelial cells; conditions: 24 hours
Protocol: GSK-3β-immunoblotting analyses of endothelial cells treated with different inflammatory and non-inflammatory agents were performed.
Cells were treated as taught in Examples 1 and 2. Endothelial cells were incubated with an agent for 24 hours. […] After incubation, the cells were washed, lysed and separated by polyacrylamide gel electrophoresis. Western blotting was performed, using antibody directed to GSK-3β, and detected.

GSK-3β promoter = experiment: GSK-3β promoter-luciferase reporter assay in transfected BAEC; conditions: TNFα 10 ng/ml, 24-48 hours
Protocol: pGL3-GSK3B−1478/+534 was transfected into bovine aortic endothelial cells (BAEC) by electroporation. Transfected cells were aliquoted into 96 well plates and allowed to recover in full media for 16-24 hours. […] Luciferase activity was measured in cell lysates using Bright-Glo Luciferase Assay System (Promega).

GSK-3β expression [2] = experiment: RT-PCR of GSK-3β in endothelial cells; conditions: endothelial cells (HMVEC); TNFα 10 ng/ml or AGE 100 μg/ml; 8 hours; vs control
[3] = system: IL-6 production by endothelial cells; experiment: IL-6 ELISA of endothelial cell media
VCAM-1 expression = experiment: VCAM-1 ELISA on endothelial cell monolayers; conditions: 24 h
Protocol: HMVEC cells were treated with control medium or medium containing 10 ng/ml TNFα or 100 μg/ml glycated-HSA for 24 hrs. All treatments and controls were carried out in serum free media containing 0.2% albumin. Following treatment, cell media were collected and used for IL-6, MCP-1 ELISA and cells were used for VCAM-1 ELISA which was conducted in situ without lysis. Inhibition of GSK-3β altered inflammation-related adhesion molecule expression. VCAM-1 is an endothelial adhesion molecule that facilitates monocyte infiltration into the blood vessel (3). Cells were treated as described in Example 2. Endothelial cells were exposed to KCl (10 mM, as a control) or with TNFα (10 ng/ml); LiCl (10 mM) alone and with TNFα (10 ng/ml), insulin (1 nM) alone or with TNFα (10 ng/ml). Following incubation for 24 h, […] assayed for VCAM-1 by ELISA. VCAM-1 ELISA was performed on monolayers of endothelial cells in 96 well plates. Wells were incubated with 100 μl of 1:1000 dilution of primary antibody (polyclonal goat anti-human VCAM-1 from R&D Systems) in medium containing 10% FBS. A rabbit anti-goat IgG-HRP was used as secondary antibody and ELISA was performed as described for MCP-1 above.

[4] = system: MCP-1 production by endothelial cells; experiment: MCP-1 ELISA of endothelial cell media; conditions: 24 h
Protocol: MCP-1 ELISA was carried out using Quantikine Human MCP-1 kit as described by manufacturer (R&D Systems). Mouse anti-human MCP-1 was used as the capture antibody and HRP-conjugated goat anti-human MCP-1 was used as the detection antibody. Culture media were incubated with capture antibody (in 96 well) for 2 h at room temperature. Wells were washed three times with wash buffer (0.05% Tween-20 in PBS followed by incubation with detection antibody for 2 h at room temperature. Color development was read at 450 nm in a microplate reader.
Endothelial cells, as grown in Example 1 and 2, were transfected with oligonucleotides using Cytofectin transfection reagent. […] IL-6 and MCP-1 were determined by ELISA, as shown in Examples 2 and 3.
Inhibition of GSK-3β led to […] inflammatory gene expression in endothelial cells. Overexpression of GSK-3β protein inhibited inducible inflammatory gene expression in endothelial cells. Full length GSK-3β cDNA was cloned into a retroviral vector pLIB. Empty vectors or vectors carrying alkaline phosphatase were used as controls. Retroviral particles carrying different genes were generated in HEK-293 cells. […] IL-6 and MCP-1 were determined by ELISA as described in Examples 2 and 3.

decrease of GSK-3β promoter activity (luciferase) (GSK-3β promoter): greater than 50%
Substance: TNFα
decrease of GSK-3β expression (GSK-3β expression [1]; TNF-α 10 ng/ml, AGE 300 μg/ml, oxidized LDL 100 μg/ml, IL-1β 1 ng/ml): 70%
intensity of the 406 bp GSK-3β RT-PCR band (GSK-3β expression [2]): decreased
increase in IL-6 secretion ([3]; TNFα 10 ng/ml alone, 24 h): greater than 10 fold
induction of IL-6 expression ([3]; endothelial cells transduced with control vector): 10 fold
VCAM-1 expression, % of basal levels (VCAM-1 expression; TNFα 10 ng/ml alone): 340%

Substance: VEGF
induction of GSK-3β expression (GSK-3β expression [1]; VEGF 10 ng/ml): ~2 fold

Substance: insulin: known inhibitor of GSK-3β
increase of MCP-1 ([4]; added together with AGE 300 μg/ml, LiCl 10 mM or insulin 1 nM): approximately 2.8 fold
increase of MCP-1 secretion ([4]; agent alone (LiCl 10 mM, insulin 1 nM), vs 10 mM KCl (about 400 pg/ml)): about 50%
effect on VCAM expression (VCAM-1 expression; agent alone (LiCl 10 mM, insulin 1 nM)): did not significantly affect
effect on TNFα-induced VCAM-1 expression (VCAM-1 expression; insulin 1 nM together with TNFα 10 ng/ml, vs TNFα alone): almost doubled the effect of TNFα alone
